Measured values as given in patent EP0720987A1, “Acylated pseudopeptides containing trifluoromethyl substituted 2-azabicyclooctane” (BAYER AG, priority 1995, dated 1996).
pIC50: −log10 of the molar value.

Key:
HIV = HIV infection in cell culture (PBL), inhibition of virus-induced syncytia formation; type: cell-based; conditions: Human immunodeficiency virus 1, Lymphocyte, 72 h; HIV-infected normal human blood lymphocytes (PBL's); 50% suppression of virus-induced syncytia, read microscopically day 3 to 6 after infection
Protocol: Außerdem zeigten die erfindungsgemäßen Verbindungen Wirkung in Lentivirus infizierten Zellkulturen. Dies konnte am Beispiel des HIV-Virus gezeigt werden.
HIV-Infektion in Zellkultur
Der HIV-Test wurde mit geringen Modifikationen nach der Methode von Pauwels et al. [vgl. Journal of Virological Methods 20, (1988), 309-321] durchgeführt.
Normale menschliche Blutlymphozyten (PBL's) wurden über Ficoll-Hypaque angereichert und im RPMI 1640, 20% fötales Kälberserum mit Phythaemagglutinin (90 µg/ml) und Interleukin-2 (40 U/ml) stimuliert. Zur Infektion mit dem infektiösen HIV wurden PBL's pelletiert und das Zellpellet wurde anschließend in 1 ml HIV-Virusadsorptionslösung suspendiert und 1 Stunde bei 37°C inkubiert.
Die Virusadsorptionslösung wurde zentrifugiert und das infizierte Zellpellet in Wachstumsmedium aufgenommen, so daß 1 x 10^5 Zellen pro ml eingestellt waren. Die derart infizierten Zellen wurden zu 1 x 10^4 Zellen/Napf in die Näpfe von 96er Mikrotiterplatten pipettiert.
Die erste vertikale Reihe der Mikrotiterplatte enthielt nur Wachstumsmedium und Zellen, die nicht infiziert, aber ansonsten genauso wie oben beschrieben, behandelt worden waren (Zellkontrolle). Die zweite vertikale Reihe der Mikrotiterplatte erhielt nur HIV-infizierte Zellen (Viruskontrolle) in Wachstumsmedium. Die übrigen Näpfe enthielten die erfindungsgemäßen Verbindungen in unterschiedlichen Konzentrationen, ausgehend von den Näpfen der 3. vertikalen Reihe der Mikrotiterplatte, von der die Prüfsubstanzen in 2er Schritten 2^10fach verdünnt wurden.
Die Testansätze wurden so lange bei 37°C inkubiert, bis in der unbehandelten Viruskontrolle die für das HIV typische Syncytienbildung auftrat (zwischen Tag 3 und 6 nach Infektion), die dann mikroskopisch ausgewertet wurde. In der unbehandelten Viruskontrolle resultierten unter diesen Testbedingungen etwa 20 Syncytien, währen die unbehandelte Zellkontrolle keine Syncytien aufwies. […]

HIV-1-Protease = target: T1, HIV-1-Protease (Human immunodeficiency virus type 1 group M subtype B, UniProt P04585); experiment: HIV-specific protease enzyme test (cleavage of synthetic peptide by purified HIV protease, RP-HPLC analysis); type: biochemical; conditions: synthetic peptide substrate imitating Gag precursor cleavage site; for pIC50: read-out: HIV-1-Protease-Inhibition IC50
T1 construct: Gereinigte HIV-Protease wurde mit synthetischem Peptid
From the text: Es wurde überraschend gefunden, daß die Verbindungen der allgemeinen Formel (I) eine außerordentlich starke Wirkung gegen Retroviren besitzen. Dies wird mit einem HIV-spezifischen Protease-Enzymtest belegt.
Die Ergebnisse der unten aufgeführten Beispiele wurden nach dem in den folgenden Literaturangaben [vgl. Hansen, J., Billich, S., Schulze, T., Sukrow, S. and Mölling, K. (1988), EMBO Journal, Vol, 7, No. 6, pp. 1785 - 1791] beschriebenen HIV-Testsystem ermittelt: Gereinigte HIV-Protease wurde mit synthetischem Peptid, das eine Schnittstelle im Gag-Precursor-Protein imitiert und eine in vivo-Spaltstelle der HIV-Protease darstellt, inkubiert. Die entstandenen Spaltprodukte des synthetischen Peptids wurden über Reverse Phase High Performance Liquid Chromatography (RP-HPLC) analysiert. Die angegebenen IC50Werte beziehen sich auf die Substanzkonzentration, die unter den oben aufgeführten Testbedingungen eine 50%ige Hemmung der Protease-Aktivität bewirkt.

SMILES	pIC50 (HIV)	pIC50 (HIV-1-Protease)	HIV-1-Protease-Inhibition IC95 (HIV-1-Protease)
CCOC(=O)CCC(=O)O[C@H](CN1[C@H](C(F)(F)F)C[C@@H]2CCC[C@@H]21)[C@H](Cc1ccccc1)NC(=O)[C@H](CC(N)=O)NC(=O)c1ccc2ccccc2n1 [Beispiel 1, (2R,3S)-3-(Chinolin-2-yl-L-asparaginyl)-amino-1-[(S,S,S)-3-trifluormethyl-2-azabicylco[3.3.0]octan-2-yl}-2-(3-ethoxycarbonyl)propionyl-4-phenylbutan]	6.97	3.49	
CC(=O)O[C@H](CN1[C@H](C(F)(F)F)C[C@@H]2CCC[C@@H]21)[C@H](Cc1ccccc1)NC(=O)[C@H](CC(N)=O)NC(=O)c1ccc2ccccc2n1 [Beispiel 2]	6.21	5.96	3,3 x 10^-5 Mol/l
CC(=O)O[C@H](CN1[C@H](C(F)(F)F)C[C@@H]2CCC[C@@H]21)[C@H](Cc1ccccc1)NC(=O)[C@H](CC(N)=O)NC(=O)c1cnc2cc(C)c(C)cc2n1 [Beispiel 3]	6.92	8.82	2,5 x 10^-8 Mol/l
